Reference: patent US8927246B2, “Method to increase the production of extracellular polymeric substances (EPS) in a Acidithiobacillus ferrooxidans culture by the inhibition of enzymes of tricarboxilic acid cycle” (Universidad de Chile, priority 2010, dated 2015)

Assays:
[1] = system: Acidithiobacillus ferrooxidans strain Wenelen; assay: Batch culture of A. ferrooxidans Wenelen with FIC versus control: biomass and EPS production; type: cell-based; conditions: for [EPS] ajusted: fitted curve
Procedure: To compare biomass and EPS production in a Acidithiobacillus ferrooxidans, a culture with FIC and a control one, without FIC, were conducted.
Both cultures were carried in 1 L of a 9K medium described in Table 2, with the addition of 30 g/L of ferrous sulfate, with pH set at 1.8, agitation of 250 rpm and air flux of 1 VVM.
In both cultures, the same initial biomass concentration of 1*10^7 cell/mL was inoculated. In sample 1, 80 μM of FIC was added. Cultures were kept for 288 hours and EPS and biomass concentration was periodically measured. Afterwards, specific productivity of EPS was calculated.

Aconitase (EC 4.2.1.3) = conditions: cited from earlier work
[2] = 80 μM FIC, from hours 48 to 120

fluoroisocitrate [FIC]
amount of EPS per cell (pg EPS/cell) relative to control ([1]; 80 μM FIC, 192 hours): 18 times | EPS yield (pg EPS/cell) relative to control sample ([1]; 80 μM FIC, at 120 hours of culture): 2 times | biomass relative to control sample ([1]; 80 μM FIC, between 120 and 288 hours): lower by one magnitude order | difference in growth rate or EPS production versus control sample ([1]; 80 μM FIC, first 48 hours): no significant differences | EPS production [1, 2]: strong increase | biomass [1, 2]: remains practically constant | EPS ([1]; 80 μM FIC, time 0.0001 hours): 28 mg/L | cel/ml (biomass concentration) ([1]; 80 μM FIC, time 0.0001 hours): 4.69E+06 cel/ml | pg EPS/cel ([1]; 80 μM FIC, time 0.0001 hours): 5.97 pg EPS/cel | [EPS] ajusted ([1]; 80 μM FIC, time 0.0001 hours): 28.00 mg/L | EPS ([1]; 80 μM FIC, time 24 hours): 33.5 mg/L | cel/ml (biomass concentration) ([1]; 80 μM FIC, time 24 hours): 7.81E+06 cel/ml | pg EPS/cel ([1]; 80 μM FIC, time 24 hours): 4.29 pg EPS/cel | [EPS] ajusted ([1]; 80 μM FIC, time 24 hours): 36.49 mg/L | EPS ([1]; 80 μM FIC, time 48 hours): 74 mg/L | cel/ml (biomass concentration) ([1]; 80 μM FIC, time 48 hours): 6.66E+07 cel/ml | pg EPS/cel ([1]; 80 μM FIC, time 48 hours): 1.11 pg EPS/cel | [EPS] ajusted ([1]; 80 μM FIC, time 48 hours): 109.28 mg/L | EPS ([1]; 80 μM FIC, time 120 hours): 341 mg/L | cel/ml (biomass concentration) ([1]; 80 μM FIC, time 120 hours): 7.69E+07 cel/ml | pg EPS/cel ([1]; 80 μM FIC, time 120 hours): 4.44 pg EPS/cel | [EPS] ajusted ([1]; 80 μM FIC, time 120 hours): 306.36 mg/L | EPS ([1]; 80 μM FIC, time 144 hours): 350 mg/L | cel/ml (biomass concentration) ([1]; 80 μM FIC, time 144 hours): 4.16E+07 cel/ml | pg EPS/cel ([1]; 80 μM FIC, time 144 hours): 8.42 pg EPS/cel | [EPS] ajusted ([1]; 80 μM FIC, time 144 hours): 318.74 mg/L | EPS ([1]; 80 μM FIC, time 168 hours): 372.5 mg/L | cel/ml (biomass concentration) ([1]; 80 μM FIC, time 168 hours): 3.41E+07 cel/ml | pg EPS/cel ([1]; 80 μM FIC, time 168 hours): 10.94 pg EPS/cel | [EPS] ajusted ([1]; 80 μM FIC, time 168 hours): 324.73 mg/L | EPS ([1]; 80 μM FIC, time 192 hours): 348.5 mg/L | cel/ml (biomass concentration) ([1]; 80 μM FIC, time 192 hours): 1.41E+07 cel/ml | pg EPS/cel ([1]; 80 μM FIC, time 192 hours): 24.78 pg EPS/cel | [EPS] ajusted ([1]; 80 μM FIC, time 192 hours): 327.88 mg/L | EPS ([1]; 80 μM FIC, time 216 hours): 315 mg/L | cel/ml (biomass concentration) ([1]; 80 μM FIC, time 216 hours): 1.38E+07 cel/ml | pg EPS/cel ([1]; 80 μM FIC, time 216 hours): 22.91 pg EPS/cel | [EPS] ajusted ([1]; 80 μM FIC, time 216 hours): 329.65 mg/L | EPS ([1]; 80 μM FIC, time 288 hours): 305 mg/L | cel/ml (biomass concentration) ([1]; 80 μM FIC, time 288 hours): 1.94E+07 cel/ml | pg EPS/cel ([1]; 80 μM FIC, time 288 hours): 15.74 pg EPS/cel | [EPS] ajusted ([1]; 80 μM FIC, time 288 hours): 331.83 mg/L | effect on EPS and biomass production in culture ([1]; A. ferroxidans culture): enhanced EPS production in detriment of biomass production | EPS specific productivity versus control ([1]; FIC cultures, after the first 30 hours): significant increase | increase in EPS specific productivity versus control ([1]; FIC cultures, around the 50 hours of culture, exponential growth phase): ~30% | inhibition of aconitase (Aconitase (EC 4.2.1.3)): specifically inhibited
